In patent US9617229B2, “Phenylmorpholines and analogues thereof” (Research Triangle Institute, priority 2010, dated 2017):
Where a name gives a salt, the structure may show the parent alone. Read-outs that look alike come from different tables or passages of the source.

How the values were obtained:
NET = biological target: T1, NET (Rattus norvegicus, UniProt Q63380); assay: NE release assay (synaptosomes, [3H]MPP+); format: biochemical; conditions: for NE Rel (%): % EC50 of release
T1 construct: the supernatants were retained on ice (synaptosomal preparation); from tissue; host or cells: rat whole brain minus cerebellum and caudate, synaptosomes
Protocol: (§1) Rat caudate (for DA release) or whole brain minus cerebellum and caudate (for NE and 5-HT release), was homogenized in ice-cold 10% sucrose containing 1 μM reserpine. Nomifensine (100 nM) and GBR12935 (100 nM) were added to the sucrose solution for [^3H]5-HT release experiments to block any potential [^3H]5-HT reuptake into NE and DA nerve terminals. For the DA release assay, 100 nM desipramine and 100 nM citalopram were added to block [^3H]MPP^+ uptake into NE and 5-HT nerves. For the NE release assay, 50 nM GBR12935 and 100 nM citalopram were added to block [^3H]MPP^+ uptake into DA and 5-HT nerves. After 12 strokes with a Potter-Elvehjem homogenizer, homogenates were centrifuged at 1000×g for 10 min at 0-4° C. and the supernatants were retained on ice (synaptosomal preparation).
(§2) After incubation to steady state, 850 μl of synaptosomes preloaded with [^3H]ligand were added to 12×75 mm polystyrene test tubes that contained 150 μl test drug in uptake buffer plus 1 mg/ml BSA. After 5 min (^3H]5-HT) or 30 min (NE and DA assays) the release reaction was terminated by dilution with 4 ml wash buffer (10 mM Tris-HCl pH 7.4 containing 0.9% NaCl at 25° C.) followed by rapid vacuum filtration over Whatman GF/B filters using a Brandel Harvester. The filters were rinsed twice with 4 ml wash buffer using the Brandel Harvester, and the retained tritium was counted by a Taurus liquid scintillation counter at 40% efficiency after an overnight extraction in 3 ml Cytoscint (ICN).
(§3) In substrate reversal experiments, statistical significance was determined using the Student's t-test.

DAT = DAT (Rattus norvegicus, UniProt P23977); assay: DA release assay (synaptosomes, [3H]MPP+); format: biochemical; set-up: the supernatants were retained on ice (synaptosomal preparation); from tissue; host or cells: rat caudate synaptosomes; conditions: for activation at 10 µM: Table 3
Protocol: as §1, §2, §3

SERT = SERT (Rattus norvegicus, UniProt P31652); assay: 5-HT release assay (synaptosomes, [3H]5-HT); format: biochemical; set-up: the supernatants were retained on ice (synaptosomal preparation); from tissue; host or cells: rat whole brain minus cerebellum and caudate, synaptosomes; conditions: for activation at 10 µM / Release 5-HT (EC50 nm): Table 3; for 5HT Rel (%): Table 4, % EC50 of release; for Release 5-HT (EC50 nm): rat brain synaptosomes
Protocol: as §1, §2, §3

5-HT2B receptor [1] = biological target: T2, 5-HT2B receptor (Homo sapiens, UniProt P41595); assay: 5-HT2B activity, agonist; format: cell-based
5-HT2B receptor [2] = biological target: T2, 5-HT2B receptor; assay: 5-HT2B activity, antagonist; format: cell-based
[3] = Release NE (EC50 nm), Table 3, rat brain synaptosomes

DAT, sequence (P23977 whole entry): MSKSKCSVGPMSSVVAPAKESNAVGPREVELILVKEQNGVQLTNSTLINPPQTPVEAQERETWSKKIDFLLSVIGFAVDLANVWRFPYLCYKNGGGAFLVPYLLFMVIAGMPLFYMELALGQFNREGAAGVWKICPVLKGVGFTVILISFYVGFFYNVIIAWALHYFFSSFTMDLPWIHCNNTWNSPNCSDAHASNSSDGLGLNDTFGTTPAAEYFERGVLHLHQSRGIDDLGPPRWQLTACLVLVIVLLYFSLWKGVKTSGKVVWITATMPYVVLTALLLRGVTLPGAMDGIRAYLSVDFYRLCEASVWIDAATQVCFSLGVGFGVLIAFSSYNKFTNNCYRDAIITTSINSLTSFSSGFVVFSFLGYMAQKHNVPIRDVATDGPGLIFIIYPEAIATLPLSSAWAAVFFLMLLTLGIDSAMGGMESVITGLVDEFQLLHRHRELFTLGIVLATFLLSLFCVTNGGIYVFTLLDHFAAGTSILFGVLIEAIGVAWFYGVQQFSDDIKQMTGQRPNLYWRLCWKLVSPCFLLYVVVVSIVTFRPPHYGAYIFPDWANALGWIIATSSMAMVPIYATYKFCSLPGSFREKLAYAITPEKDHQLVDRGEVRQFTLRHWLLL
SERT, sequence (P31652 whole entry): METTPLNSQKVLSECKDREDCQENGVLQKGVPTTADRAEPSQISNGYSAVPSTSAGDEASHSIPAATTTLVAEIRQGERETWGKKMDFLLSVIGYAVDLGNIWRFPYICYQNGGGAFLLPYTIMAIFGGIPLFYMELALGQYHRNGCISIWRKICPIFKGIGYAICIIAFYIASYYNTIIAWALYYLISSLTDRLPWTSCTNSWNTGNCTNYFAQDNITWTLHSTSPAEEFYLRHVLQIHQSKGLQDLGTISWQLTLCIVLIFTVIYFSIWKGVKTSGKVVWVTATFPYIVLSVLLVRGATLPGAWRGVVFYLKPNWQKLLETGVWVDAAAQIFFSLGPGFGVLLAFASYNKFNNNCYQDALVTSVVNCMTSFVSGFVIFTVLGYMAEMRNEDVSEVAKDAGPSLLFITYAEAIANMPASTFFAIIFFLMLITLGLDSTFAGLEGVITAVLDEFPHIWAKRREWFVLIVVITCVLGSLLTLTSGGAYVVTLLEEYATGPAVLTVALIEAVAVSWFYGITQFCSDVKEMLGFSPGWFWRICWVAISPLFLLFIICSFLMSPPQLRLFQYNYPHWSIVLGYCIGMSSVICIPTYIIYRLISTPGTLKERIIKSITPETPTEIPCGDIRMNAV
T1 sequence (Q63380 1-617): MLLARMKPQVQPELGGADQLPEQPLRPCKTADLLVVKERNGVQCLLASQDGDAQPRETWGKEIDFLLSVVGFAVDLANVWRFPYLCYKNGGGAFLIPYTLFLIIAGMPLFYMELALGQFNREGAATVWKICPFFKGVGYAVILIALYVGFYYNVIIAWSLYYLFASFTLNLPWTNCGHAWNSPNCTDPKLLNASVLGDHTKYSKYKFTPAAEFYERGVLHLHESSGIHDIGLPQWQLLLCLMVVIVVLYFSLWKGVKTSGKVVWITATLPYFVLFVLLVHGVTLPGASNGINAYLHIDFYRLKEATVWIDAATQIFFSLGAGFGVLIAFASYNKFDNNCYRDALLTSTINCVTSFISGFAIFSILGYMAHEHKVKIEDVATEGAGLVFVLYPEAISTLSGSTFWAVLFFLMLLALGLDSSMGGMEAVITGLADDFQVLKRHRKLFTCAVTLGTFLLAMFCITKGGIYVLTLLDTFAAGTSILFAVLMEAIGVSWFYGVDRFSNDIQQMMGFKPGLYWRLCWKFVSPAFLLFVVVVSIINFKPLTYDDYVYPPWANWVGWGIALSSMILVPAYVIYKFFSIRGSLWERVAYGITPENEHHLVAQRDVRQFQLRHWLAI
T2 sequence (P41595 whole entry): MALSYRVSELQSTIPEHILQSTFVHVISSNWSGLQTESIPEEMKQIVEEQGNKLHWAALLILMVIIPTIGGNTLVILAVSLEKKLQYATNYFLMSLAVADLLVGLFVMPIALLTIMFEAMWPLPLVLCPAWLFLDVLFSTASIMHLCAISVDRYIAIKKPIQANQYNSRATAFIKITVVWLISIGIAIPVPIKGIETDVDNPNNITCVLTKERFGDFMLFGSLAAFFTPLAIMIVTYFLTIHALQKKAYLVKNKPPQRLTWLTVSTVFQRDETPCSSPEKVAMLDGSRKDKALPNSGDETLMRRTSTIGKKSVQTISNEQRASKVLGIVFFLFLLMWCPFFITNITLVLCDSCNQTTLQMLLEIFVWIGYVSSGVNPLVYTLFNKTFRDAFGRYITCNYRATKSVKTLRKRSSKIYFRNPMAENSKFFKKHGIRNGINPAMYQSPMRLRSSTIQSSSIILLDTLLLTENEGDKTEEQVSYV

SMILES: C[C@H]1CO[C@@H](c2ccccc2)CN1 [PAL 730, (2S,5S)-5-Methyl-2-phenyl-morpholine]
- EC50 (NET): 79 nM
- EC50 (DAT): 212 nM
- EC50 (SERT): 107 nM

SMILES: C[C@H]1CO[C@@H](c2cccc(C(F)(F)F)c2)CN1 [PAL 895, (2S,5S)-5-Methyl-2-(3-trifluoromethyl-phenyl)-morpholine]
- DA Rel (%) (DAT; Table 5): 45%

SMILES: C[C@H]1CO[C@@H](c2ccc(C(F)(F)F)cc2)CN1 [PAL 910, (2S,5S)-5-Methyl-2-(4-trifluoromethyl-phenyl)-morpholine]
- DA Rel (%) (DAT; Table 5): 15%

SMILES: C[C@H]1NCCOC1c1cccc(F)c1 (stereo in doubt) [PAL593, 2-(3-fluoro-phenyl)-3-methyl-morpholine]
- EC50 (NET; NE Rel (EC50), Table 4): 30 nM
- EC50 (DAT): 43 nM
- EC50 (SERT): 2560 nM

SMILES: CC1NCCOC1(O)c1cccc(Cl)c1 (stereo not drawn) [PAL590, 2-(3-chlorophenyl)-3-methylmorpholin-2-ol]
- activation at 10 µM (NET; Table 3): 62%
- activation at 10 µM (DAT): 39%
- activation at 10 µM (5-HT2B receptor [1]): 0%
- activation at 10 µM (SERT): 41%
- inhibition at 1 µM (5-HT2B receptor [2]): 16%

SMILES: CC1NCCOC1(O)c1cccc(F)c1 (stereo not drawn) [PAL587, 2-(3-fluorophenyl)-3-methylmorpholin-2-ol]
- activation at 10 µM (NET; Table 3): 67%
- activation at 10 µM (DAT): 34%
- activation at 10 µM (5-HT2B receptor [1]): 0%
- activation at 10 µM (SERT): 6%
- inhibition at 1 µM (5-HT2B receptor [2]): 0%

SMILES: Cc1cccc(C2OCCNC2C)c1.Cc1cccc(C2OCCNC2C)c1.O=C(O)/C=C/C(=O)O (stereo not drawn) [PAL 773, 3-Methyl-2-(3′-Tolyl)morpholine (0.5 fumarate)]
- NE Rel (%) (NET; Table 4): 80%
- DA Rel (%) (DAT; Table 4, % EC50 of release): 98%
- 5HT Rel (%) (SERT): 82%

SMILES: CC1NCCOC1c1cccc(F)c1 (stereo not drawn) [PAL593, 2-(3-fluoro-phenyl)-3-methyl-morpholine]
- activation at 10 µM (NET; Table 3): 93%
- activation at 10 µM (DAT): 100%
- activation at 10 µM (5-HT2B receptor [1]): 0%
- activation at 10 µM (SERT): 95%
- inhibition at 1 µM (5-HT2B receptor [2]): 1%

SMILES: C[C@H]1NCCO[C@@H]1c1ccccc1 [PAL56, (+)-phenmetrazine, reference compound]
- EC50 (NET; NE Rel (EC50), Table 4): 38 nM
- EC50 (NET; [3]): 37 nM
- DA releaser activity (in words) (DAT): effective DA/5HT releaser
- EC50 (DAT): 87 nM
- activation at 10 µM (5-HT2B receptor [1]): 0%
- 5HT releaser activity (in words) (SERT): effective DA/5HT releaser
- EC50 (SERT): 3250 nM
- inhibition at 1 µM (5-HT2B receptor [2]): 42%

SMILES: Fc1ccc(C2CNCCO2)cc1 (stereo not drawn) [PAL635, 2-(4-fluorophenyl)morpholine]
- EC50 (NET; NE Rel (EC50), Table 4): 285 nM
- activation at 10 µM (NET; Table 3): 100%
- EC50 (DAT): 529 nM
- activation at 10 µM (DAT): 95%
- activation at 10 µM (5-HT2B receptor [1]): 0%
- EC50 (SERT): 2400 nM
- activation at 10 µM (SERT): 88%

SMILES: C[C@H]1CO[C@@H](c2cccc(Cl)c2)CN1 [PAL 738, (2S,5S)-2-(3-Chloro-phenyl)-5-methyl-morpholine]
- EC50 (NET): 65 nM
- EC50 (DAT): 58 nM
- EC50 (SERT): 23 nM

SMILES: C[C@H]1CO[C@@H](c2ccc(F)cc2)CN1 [PAL 903, (2S,5S)-2-(4-Fluoro-phenyl)-5-methyl-morpholine]
- DA Rel (%) (DAT; Table 5): 65%

SMILES: C[C@@H]1NCCO[C@H]1c1ccccc1 [PAL57, reference compound]
- EC50 (NET; [3]): 63 nM
- EC50 (DAT): 415 nM
- activation at 10 µM (5-HT2B receptor [1]): 0%
- Release 5-HT (EC50 nm) (SERT): inactive

SMILES: C[C@H]1NCCOC1c1ccccc1 (stereo partly drawn) [PAL55, reference compound]
- EC50 (NET; [3]): 50 nM
- EC50 (DAT): 131 nM
- activation at 10 µM (5-HT2B receptor [1]): 0%
- EC50 (SERT): 7770 nM

SMILES: C[C@H]1NCCOC1c1cccc(Cl)c1 (stereo in doubt) [PAL594, 2-(3-chloro-phenyl)-3-methyl-morpholine]
- EC50 (NET; NE Rel (EC50), Table 4): 75 nM
- activation at 10 µM (NET; Table 3): 82%
- EC50 (DAT): 27 nM
- activation at 10 µM (DAT): 100%
- activation at 10 µM (5-HT2B receptor [1]): 2%
- 5HT releaser activity (in words) (SERT): improvements in 5HT release
- EC50 (SERT): 301 nM
- activation at 10 µM (SERT): 95%
- inhibition at 1 µM (5-HT2B receptor [2]): 28%

SMILES: COc1cccc([C@H]2CN[C@@H](C)CO2)c1 [PAL 880, (2S,5S)-2-(3-Methoxy-phenyl)-5-methyl-morpholine]
- DA Rel (%) (DAT; Table 5): 56%

SMILES: CC1NCCOC1c1cccc(O)c1.Cl (stereo not drawn) [PAL 780, 3-Methyl-[(3′-Hydroxy)-2-Phenyl]morpholine hydrochloride]
- NE Rel (%) (NET; Table 4): 100%
- DA Rel (%) (DAT; Table 4, % EC50 of release): 97%
- 5HT Rel (%) (SERT): 70%

SMILES: COc1ccc(C2OCCNC2C)cc1.Cl (stereo not drawn) [PAL 751, 3-Methyl-[(4′-Methoxy)-2-Phenyl]morpholine hydrochloride]
- NE Rel (%) (NET; Table 4): 84%
- DA Rel (%) (DAT; Table 4, % EC50 of release): 50%
- 5HT Rel (%) (SERT): 64%

SMILES: c1ccc(C2CNCCO2)cc1 (stereo not drawn) [PAL632]
- EC50 (NET; NE Rel (EC50), Table 4): 79 nM
- activation at 10 µM (NET; Table 3): 96%
- EC50 (DAT): 86 nM
- activation at 10 µM (DAT): 98%
- activation at 10 µM (5-HT2B receptor [1]): 2%
- EC50 (SERT): 20300 nM
- activation at 10 µM (SERT): 31%
- inhibition at 1 µM (5-HT2B receptor [2]): 12%

SMILES: CC1NCCOC1c1ccc(C#N)cc1.CC1NCCOC1c1ccc(C#N)cc1.O=C(O)/C=C/C(=O)O (stereo not drawn) [PAL 772, 3-Methyl-[(4′-Cyano)-2-Phenyl]morpholine (0.5 fumarate)]
- NE Rel (%) (NET; Table 4): 100%
- DA Rel (%) (DAT; Table 4, % EC50 of release): 0%
- 5HT Rel (%) (SERT): 53%

SMILES: CC1NCCOC1c1ccc(F)c(Cl)c1.Cl (stereo not drawn) [PAL 821, 3-Methyl-[(3′-Chloro-4′-Fluoro)-2-Phenyl]morpholine hydrochloride]
- NE Rel (%) (NET; Table 4): 80%
- DA Rel (%) (DAT; Table 4, % EC50 of release): 94%
- 5HT Rel (%) (SERT): 71%

SMILES: COc1cccc(C2OCCNC2C)c1.COc1cccc(C2OCCNC2C)c1.O=C(O)/C=C/C(=O)O (stereo not drawn) [PAL 823, 3-Methyl-[(3′-Methoxy)-2-Phenyl]morpholine (0.5 fumarate)]
- NE Rel (%) (NET; Table 4): 86%
- DA Rel (%) (DAT; Table 4, % EC50 of release): 96%
- 5HT Rel (%) (SERT): 78%

SMILES: Cc1cccc([C@H]2CN[C@@H](C)CO2)c1 [PAL 886, (2S,5S)-5-Methyl-2-m-tolyl-morpholine]
- DA Rel (%) (DAT; Table 5): 86%

SMILES: CC1NCCOC1c1ccc(Cl)cc1.CC1NCCOC1c1ccc(Cl)cc1.O=C(O)/C=C/C(=O)O (stereo not drawn) [PAL 749, 3-Methyl-[(4′-Chloro)-2-Phenyl]morpholine (0.5 fumarate)]
- NE Rel (%) (NET; Table 4): 93%
- DA Rel (%) (DAT; Table 4, % EC50 of release): 88%
- 5HT Rel (%) (SERT): 76%

SMILES: CC1NCCOC1c1cccc(C#N)c1.Cl (stereo not drawn) [PAL 786, 3-Methyl-[(3′-Cyano)-2-Phenyl]morpholine hydrochloride]
- NE Rel (%) (NET; Table 4): 100%
- DA Rel (%) (DAT; Table 4, % EC50 of release): 99%
- 5HT Rel (%) (SERT): 99%

SMILES: C[C@H]1CO[C@@H](c2cccc(F)c2)CN1 [PAL 890, (2S,5S)-2-(3-Fluoro-phenyl)-5-methyl-morpholine]
- DA Rel (%) (DAT; Table 5): 96%

SMILES: C[C@H]1NCCO[C@H]1c1ccccc1 [PAL60, reference compound]
- EC50 (NET; [3]): 349 nM
- EC50 (DAT): 1460 nM
- activation at 10 µM (5-HT2B receptor [1]): 0%
- Release 5-HT (EC50 nm) (SERT): Inactive

SMILES: Cc1ccc(C2OCCNC2C)cc1 (stereo not drawn) [PAL 747, 3-Methyl-2-(4′-Tolyl)morpholine fumarate]
- DA Rel (%) (DAT; Table 4, % EC50 of release): 91%

SMILES: CC1NCCOC1c1ccccc1 (single isomer, unassigned; (-)) [(−)-isomer, reference compound]
- DA releaser activity (in words) (DAT): active as a releaser, but is not as potent

SMILES: CC1NCCOC1c1ccc(F)cc1.CC1NCCOC1c1ccc(F)cc1.O=C(O)/C=C/C(=O)O (stereo not drawn) [PAL 748, 3-Methyl-[(4′-Fluoro)-2-Phenyl]morpholine (0.5 fumarate)]
- NE Rel (%) (NET; Table 4): 93%
- DA Rel (%) (DAT; Table 4, % EC50 of release): 98%
- 5HT Rel (%) (SERT): 94%

SMILES: CC1NCCOC1(O)c1ccccc1 (stereo not drawn) [PAL583, 3-methyl-2-phenylmorpholin-2-ol]
- activation at 10 µM (NET; Table 3): 69%
- activation at 10 µM (DAT): 29%
- activation at 10 µM (5-HT2B receptor [1]): 0%
- activation at 10 µM (SERT): 0%
- inhibition at 1 µM (5-HT2B receptor [2]): 6%
